Results reported in patent US20100234393A1, “USE OF A VASOPEPTIDASE INHIBITOR FOR THE TREATMENT OF PULMONARY ARTERIAL HYPERTENSION” (priority 2006, published 2010).

Key:
[1] = test system: PAH model (monocrotaline, Wistar rats); details: literature: Schermuly et al., Amer. J. Resp. Crit. Care Med. 2004, 169, 39; cited from earlier work
[2] = test system: PAH model in rats receiving an injection of monocrotaline; test: Long-term efficacy of fasidotril in the monocrotaline PAH model in rats; assay type: in vivo, rats of the Wistar type
Experimental: The long-term efficacy of fasidotril was studied on a recognised PAH model in rats receiving an injection of the toxic alkaloid, monocrotaline (Rosenberg and Rabinovitch, Am. J. Physiol., 1988, 255, 484). After a single injection of the toxin (60 mg/kg, s.c.), the pulmonary arterial endothelium is wounded and the animals develop pulmonary arterial smooth muscle hypertrophy with severe pulmonary hypertension and right ventricular hypertrophy.
A group of 50 rats of the Wistar type weighing approximately 300 g was used, of which 10 were used as controls while 40 received a dose of 60 mg/kg of monocrotaline s.c. The latter were divided into two groups of 20 animals: the first group was fed with a standard laboratory feed while the second group was fed with a feed containing fasidotril at a concentration such that the rats received a dose of approximately 200 mg/kg/day.

| SMILES | activity in the PAH model [1] | slowing down of the rate of development of the disease ([2]; PAH model, treatment with fasidotril, conclusion from mortality and heart weight data) | mortality ([2]; after one month, monocrotaline 60 mg/kg s.c., fasidotril in feed approximately 200 mg/kg/day, "monocrotaline only" group 45%) | increase in the weight of the right ventricle (right heart hypertrophy) ([2]; after one month, monocrotaline 60 mg/kg s.c., fasidotril in feed approximately 200 mg/kg/day, monocrotaline only +74%) | increase in the weight of the right auricle (right heart hypertrophy) ([2]; after one month, monocrotaline 60 mg/kg s.c., fasidotril in feed approximately 200 mg/kg/day, monocrotaline only +140%) |
| --- | --- | --- | --- | --- | --- |
| CCCc1nn(C)c2c(=O)[nH]c(-c3cc(S(=O)(=O)N4CCN(C)CC4)ccc3OCC)nc12 [sildenafil] | active |  |  |  |  |
| CC(=O)SC[C@@H](Cc1ccc2c(c1)OCO2)C(=O)N[C@@H](C)C(=O)OCc1ccccc1 [fasidotril, benzyl (S,S)-2-(2-acetylsulphanylmethyl-3-benzo[1,3]dioxol-5-ylpropionylamino)propionate] |  | approximately a half | 20% | +50% | +57% |
